Data on eleven molecules can be found in patent US8481592B2, “Uses of sesquiterpene derivatives” (Kwang Dong Pharm Co., Ltd., priority 2008, dated 2013).

One data set concerns C. elegans. Put plainly: Anti-obesity effect (fat content by Nile red staining) in C. elegans. Type of data set: in vivo, Caenorhabditis elegans. The arrangement: key to Fat content: A low fat content was indicated by +1; a high fat content was assigned with +4. Conditions: for inhibitory effect on adipogenesis: low concentration of 1 μg/ml; for Fat content: Nile red staining. How it is done:
Using a dissecting microscope (×50 magnification), C. elegans at the 4th stage (L4, the imaginal stage) was transferred to 3 ml of a cholesterol-supplemented S-medium (containing NaCl, K2HPO4, KH2PO4, cholesterol, citrate, trace metals, CaCl2 and MgSO4), and 100 μl of E. coli OP50 (OD600=0.2) liquid-cultured overnight before 1 day of experiment was added thereto. The Pterocarpus indicus fraction sample was added to the liquid media containing C. elegans, followed by rotary culture in a dark room at 16° C. and 100 rpm. The water-insoluble sample was dissolved in DMSO and added to the culture media. The final concentration of DMSO was adjusted below 1%. […] 24 hours after the sample was added to C. elegans, 30 μl of a Nile red dye at a concentration of 10 μg/ml was added (final concentration of Nile red was adjusted to 100 ng/ml) to the media, followed by continuous rotary culture for 2 days.
In order to arrest the locomotory movement of C. elegan, 20 μl of 0.3% NaN3 was dropped on a slide glass to which 100 μl of C. elegans cultured in the presence of Nile red for 2 days was added. Under a fluorescence microscope, adipocytes of C. elegans emitting red fluorescence in a dark room were micrographed and compared with the control group to thereby determine the amount of fat. A low fat content was indicated by +1, whereas a high fat content was assigned with +4. Adult (L4 stage) C. elegans immediately prior to egg-laying were used in this Example. Therefore, the eggs were hatched after sample treatment and most of adult C. elegans were killed at 3 day post-treatment. A fat content was examined in C. elegans which had newly hatched and grown.

Data set [1] is described as follows: Physical characteristics of the compounds (solubility, stability). Conditions: easily dissolved in organic solvent having lower polarity than ethanol, but not water.
Data set [2] is described as follows: Body weight gain and total visceral fat weight in mice fed high fat diet containing sesquiterpene compound. Type of data set: in vivo, mouse. Conditions: for Body weight gain / total visceral fat weight: HFD with 0.2% compound in diet, C57BL mice, 8 weeks; for total visceral fat weight: epididymal, perirenal, mesenteric and abdominal fat. From the text: Obesity-inducible diet used in the present experiment was high fat diet (HFD: 40% fat calorie, 17 g Lard+3% maize oil/100 g diet) developed by the present inventors and the composition of diet containing sesquiterpene compounds was equal to that of HFD but each 8 sesquiterpene compounds with a concentration of 0.2% was included in diet [cedryl acetate-containing diet, (−)-α-cedrene-containing diet, (+)-β-cedrene-containing diet, cedrene epoxide-containing diet, methyl cedryl ether-containing diet, methyl cedryl ketone-containing diet, cedrenol-containing diet and (+)-cedrol-containing diet]. The composition of diet is described in the following Table 5.
6-old-week C57BL/63 male mice were adapted to laboratory environment during one week and divided into HFD control and 8 test groups according to randommized block design. […] Diet was supplied with water at 10-11 o'clock every morning, and intake amount of diet and body weight was measured every day and once of three days, respectively. The body weight was measure at 2 hrs after removing feed bin to block sudden change of body weight according to feed intake, and feed efficiency was calculated by dividing body weight gain by amount of total intake amount of diet during total experimental period which is from initial day supplying experimental diet to sacrificed day. After experimental animals were fasted for above 12 hrs, they were anesthetized with diethylether, and their blood, liver and visceral fat tissues (epididymal fat, perirenal fat, mesenteric fat and abdominal fat) were collected. And then, they were washed with 0.1 M phosphate-buffered saline (pH 7.4), and their weights were measured. Blood taken from abdominal aorta was centrifuged at 1,000×g for 15 min to separate plasma.

Data set [3] in a line: Biochemical index of blood and liver tissue in mice fed high fat diet containing sesquiterpene compound. The data set is classed as in vivo, mouse. The following applies: for Liver Triglyceride / IRI (insulin resistance index) / Plasma Glucose / Plasma Insulin / Plasma Total cholesterol / Plasma Triglyceride: HFD with compound in diet, 8 weeks; for IRI (insulin resistance index) / Plasma Glucose / Plasma Insulin / Plasma Total cholesterol / Plasma Triglyceride: fasted. How it is done: The composition of diet is described in the following Table 5. […] After experimental animals were fasted for above 12 hrs, they were anesthetized with diethylether, and their blood, liver and visceral fat tissues (epididymal fat, perirenal fat, mesenteric fat and abdominal fat) were collected. And then, they were washed with 0.1 M phosphate-buffered saline (pH 7.4), and their weights were measured. […] Concentration of total Plasma cholesterol, triglyceride and glucose was measured twice according to commercially available measurement kit (Bio Clinical system), respectively. Insulin concentration was measured by ELISA using mouse insulin kit (Shibayaki, Japan). […] The homogenate was mixed with 5 ml of chloroform:methanol solution (2:1, v/v), and centrifuged at 1,000×g for 10 min to separate lower phase. […] Three ml of chloroform:methanol:0.05% CaCl2 solution (3:48:47, v/v/v) were added to the resulting lower phase, and thoroughly mixed for 1 min. The mixture was centrifuged at 1,000×g for 10 min. The final lower phase was completely dried on nitrogen gas, and the dried lipid was dissolved in 1 ml of methanol to use analysis of lipid component. Triglyceride concentration in lipid extracts from liver tissues was measured according to commercially available measurement kit (Bio Clinical system) equal to that used in analysis of plasma.

Counter-ions that a name gives are not always drawn. Marks after values point to notes of the source that are not given here.

For the molecule `C=C1[C@@H](O)C[C@@]23C[C@@H]1C(C)(C)C2CC[C@H]3C` (single isomer, unassigned; (+)) [(+)-8(15)-cedrene-9-ol, (+)-8(15)-Cedren-9-ol], the “inhibitory effect on adipogenesis” value with C. elegans is listed as “notably inhibitory effect on adipogenesis”. Moreover, the Fat content entry in the data set with C. elegans (sample concentration 1 μg/ml) is reported as “+2”; with C. elegans (sample concentration 10 μg/ml), “+1”; in the data set with C. elegans (sample concentration 100 μg/ml), “+2”. The Solubility entry in data set [1] is “Fat soluble”.
Regarding `C=C1C2CCC3C2[C@@H](C(C)C)CC[C@@]13C` (single isomer, unassigned; (+)) [(+)-sativene], the “inhibitory effect on adipogenesis” value in the data set with C. elegans is “notably inhibitory effect on adipogenesis”. Besides, the Fat content entry is listed as “+2” in the data set on C. elegans (sample concentration 1 μg/ml), “+2” with C. elegans (sample concentration 10 μg/ml) and “+1” in the data set with C. elegans (sample concentration 100 μg/ml). Moreover, the Solubility result in data set [1] is “Fat soluble”.
Take `CC1(C)C=C[C@]23CCC[C@](C)(CCC12)C3` (single isomer, unassigned; (-)) [(−)-clovene, (−)-Clovene]: in the data set on C. elegans, the “inhibitory effect on adipogenesis” value is reported as “notably inhibitory effect on adipogenesis”. Further, the Fat content entry with C. elegans (sample concentration 1 μg/ml), with C. elegans (sample concentration 10 μg/ml) and with C. elegans (sample concentration 100 μg/ml) was “+2” in each case. The Solubility entry in data set [1] is “Fat soluble”.
In the case of `C[C@@H]1CC[C@H]2C(C)(C)[C@H]3C[C@@]12CC[C@@]3(C)O` [(+)-cedrol], the Fat content result with C. elegans (sample concentration 1 μg/ml) is recorded as “+4”. The Fat content result in the data set with C. elegans (sample concentration 10 μg/ml) is listed as “+4”. The Fat content result in the data set with C. elegans (sample concentration 100 μg/ml) is “+3”. Further, in data set [2], the Body weight gain was 10.9 ± 0.85 g/8 weeks and the “total visceral fat weight” value turned out to be 92.4 ± 5.31 mg/g body weight. Also, in data set [2] (diet fed during 8-week), the “Visceral fat weight compared to control” value is given as “higher than that in control”. Further, the “all fasting glucose, blood insulin concentration and insulin resistance index in comparison with control” value in data set [3] (8-week) is “prone to be decreased in comparison with control, but statistical significance was not shown”. Further, in data set [3], the “Liver Triglyceride” value is 49.1 ± 4.10 µmol/g, the “IRI (insulin resistance index)” value is recorded as 1.45 ± 0.22 10^−3 pmol insulin × mmol glucose × L^−2, the “Plasma Glucose” value turned out to be 9.8 ± 0.99 mmol/L and the “Plasma Insulin” value worked out at 0.86 ± 0.07 ng/mL. For the same molecule, in data set [3], the “Plasma Total cholesterol” value turned out to be 2.98 ± 0.20 mmol/L and the “Plasma Triglyceride” value is 1.31 ± 0.10 mmol/L.
In the case of `CC1=CC[C@]23C[C@H]1C(C)(C)C2CC[C@H]3C` (stereo partly drawn) [(+)-α-funebrene], in the data set with C. elegans, the “inhibitory effect on adipogenesis” value is listed as “notably inhibitory effect on adipogenesis”. Moreover, the Fat content entry with C. elegans (sample concentration 1 μg/ml) was “+3”; in the data set with C. elegans (sample concentration 10 μg/ml), “+2”; in the data set on C. elegans (sample concentration 100 μg/ml), “+2”. In addition, in data set [1], the Solubility entry is “Fat soluble”.
For `C=C1CC[C@@]23C[C@@H]1C(C)(C)C2CC[C@H]3C` (stereo partly drawn) [(+)-β-cedrene], in the data set on C. elegans, the “inhibitory effect on adipogenesis” value is on record as “notably inhibitory effect on adipogenesis”. For the same molecule, in the data set with C. elegans (sample concentration 1 μg/ml), the Fat content result is reported as “+2”. For the same molecule, the Fat content result in the data set with C. elegans (sample concentration 10 μg/ml) was “+3”. In the data set with C. elegans (sample concentration 100 μg/ml), the Fat content result is “+2”. In data set [2], the Body weight gain was 7.13 ± 0.89 g/8 weeks and the “total visceral fat weight” value was 48.0 ± 8.27 mg/g body weight. For the same molecule, in data set [3], the “Liver Triglyceride” value amounted to 16.6 ± 1.28 µmol/g, the “IRI (insulin resistance index)” value is on record as 0.78 ± 0.11* 10^−3 pmol insulin × mmol glucose × L^−2, the “Plasma Glucose” value is 6.80 ± 0.41 mmol/L and the “Plasma Insulin” value came out at 0.70 ± 0.08 ng/mL. Besides, in data set [3], the “Plasma Total cholesterol” value was 2.57 ± 0.19 mmol/L and the “Plasma Triglyceride” value is 1.32 ± 0.11 mmol/L. Moreover, the “triglyceride concentration of liver tissue reduced compared to HFD” value in data set [3] (8-week) is listed as 63%. Besides, in data set [1], the Solubility result is given as “Fat soluble”.
`C=C1CC[C@]23C[C@H]1C(C)(C)C2CC[C@H]3C` (stereo partly drawn) [(+)-β-funebrene]: in the data set on C. elegans, the “inhibitory effect on adipogenesis” value is recorded as “notably inhibitory effect on adipogenesis”. The Fat content entry was “+1” in the data set with C. elegans (sample concentration 1 μg/ml), “+1” in the data set with C. elegans (sample concentration 10 μg/ml) and “+2” with C. elegans (sample concentration 100 μg/ml). The Solubility entry in data set [1] was “Fat soluble”.
Consider `C[C@@H]1CC[C@H]2C(C)(C)[C@H]3C[C@@]12CC[C@]3(C)O` [(−)-epicedrol, (−)—epicedrol], for which, in the data set with C. elegans, the “inhibitory effect on adipogenesis” value was “notably inhibitory effect on adipogenesis”. Moreover, the Fat content entry in the data set on C. elegans (sample concentration 1 μg/ml) is given as “+1”; with C. elegans (sample concentration 10 μg/ml), “+1”; in the data set on C. elegans (sample concentration 100 μg/ml), “+3”.
On to `CC1=CC[C@@]23C[C@@H]1C(C)(C)C2CC[C@H]3C` (stereo partly drawn) [(−)-α-cedrene], for which the “inhibitory effect on adipogenesis” value in the data set on C. elegans is “notably inhibitory effect on adipogenesis”. Further, the Fat content entry in the data set with C. elegans (sample concentration 1 μg/ml) is reported as “+2”. Also, the Fat content result with C. elegans (sample concentration 10 μg/ml) is “+2”. The Fat content entry in the data set on C. elegans (sample concentration 100 μg/ml) is “+2”. For the same molecule, in data set [2], the Body weight gain is on record as 6.73 ± 1.02 g/8 weeks and the “total visceral fat weight” value turned out to be 40.0 ± 4.31 mg/g body weight. In addition, in data set [3], the “Liver Triglyceride” value is 16.1 ± 0.60 µmol/g, the “IRI (insulin resistance index)” value is given as 0.75 ± 0.13* 10^−3 pmol insulin × mmol glucose × L^−2, the “Plasma Glucose” value was determined as 6.41 ± 0.57 mmol/L and the “Plasma Insulin” value worked out at 0.67 ± 0.04 ng/mL. Further, in data set [3], the “Plasma Total cholesterol” value came to 2.11 ± 0.16 mmol/L and the “Plasma Triglyceride” value is recorded as 0.81 ± 0.15 mmol/L. In data set [3] (8-week), the “triglyceride concentration of liver tissue reduced compared to HFD” value was 64% and the “Plasma triglyceride concentration reduced compared to HFD” value was 50%. In data set [1], the Solubility result was “Fat soluble”.
As to `CC(=O)O[C@]1(C)CC[C@@]23C[C@@H]1C(C)(C)[C@@H]2CC[C@H]3C` [Cedryl acetate, cedryl acetate], in the data set with C. elegans (sample concentration 1 μg/ml), the Fat content result is on record as “+4”. For the same molecule, the Fat content entry in the data set with C. elegans (sample concentration 10 μg/ml) was “+3”. For the same molecule, the Fat content result in the data set with C. elegans (sample concentration 100 μg/ml) is given as “+2”. Further, in data set [2], the Body weight gain turned out to be 8.54 ± 0.84 g/8 weeks and the “total visceral fat weight” value is reported as 46.4 ± 3.12 mg/g body weight. Further, in data set [3] (8-week), the “blood insulin concentration reduced compared to HFD” value is listed as 49%, the “fasting glucose reduced compared to HFD” value was determined as 54%, the “insulin resistance index reduced compared to HFD” value was determined as 73% and the “Plasma triglyceride concentration reduced compared to HFD” value is given as 30%. Besides, in data set [3], the “Liver Triglyceride” value is 23.8 ± 2.33 µmol/g, the “IRI (insulin resistance index)” value is 0.44 ± 0.06* 10^−3 pmol insulin × mmol glucose × L^−2, the “Plasma Glucose” value is listed as 4.67 ± 0.40 mmol/L and the “Plasma Insulin” value was found to be 0.49 ± 0.07 ng/mL. Also, in data set [3], the “Plasma Total cholesterol” value is listed as 2.53 ± 0.10 mmol/L and the “Plasma Triglyceride” value is given as 1.12 ± 0.06 mmol/L. Moreover, the Solubility entry in data set [1] is given as “Fat soluble”.
`C[C@@H]1CC[C@H]2C(C)(C)[C@H]3C[C@@]12CC[C@@]3(C)OC=O` [cedryl formate, Cedryl formate]: the “inhibitory effect on adipogenesis” value with C. elegans is “notably inhibitory effect on adipogenesis”. Moreover, the Fat content result is given as “+3” in the data set on C. elegans (sample concentration 1 μg/ml), “+1” in the data set with C. elegans (sample concentration 10 μg/ml) and “+1” in the data set with C. elegans (sample concentration 100 μg/ml). Besides, the Solubility entry in data set [1] was “Fat soluble”.
